In patent US20090214439A1, “Fluorinated Carbohydrates and Their Use in Tumor Visualization, Tissue Engineering, and Cancer Chemotherapy” (Trustees of Tufts College, priority 2006, published 2009):

Legend:
[1] = system: HL60 cells adhering to fibronectin; conditions: HL60 cells cultivated in the presence of the compound; literature data (Villavicencio-Lorini 2002; Horstkorte 2004); cited from earlier work
[2] = system: cell surfaces (Jurkat, HeLa and HL-60 cells); assay: Cell surface expression of sialic acids, DMB labeling with fluorescence HPLC (cell line not stated); assay type: cell-based; conditions: 200 μM typical, 900 μM maximum, 3 days
Source text: Cell Surface Expression of Fluorinated Sialic Acids. […] These experiments assay the overall action of multiple biosynthetic steps downstream of sialic acid, namely activation, processing and attachment to proteins and lipids and finally successful trafficking to the membrane. As mentioned above, six derivatives of mannosamine have been prepared and tested. In order to bypass the most stringent step in sialic acid biosynthetic pathway (ManNAc 6-kinase), fluorinated sialic acids were also prepared for direct use in feeding experiments. Sialic acids were synthesized as described above by enzymatic conversion of mannosamines to the corresponding sialic acids. […]
To visualize and quantify the sialic acid incorporation on cell surfaces, 1,2-diamino-4,5-methylenedioxybenzene (DMB) was used as a fluorogenic reagent for labeling α-keto acids (FIG. 4). […] The samples were analyzed by HPLC using a fluorescence detector. The retention times (by comparison to an authentic sample) provide information about the identity, LC ESI-MS unambiguously confirms the molecular structure, and integration of the peaks gives quantitative information on the relative amounts of membrane-derived sialic acids. […]

[3] = system: Jurkat cells; assay: Cell surface expression of sialic acids, DMB labeling with fluorescence HPLC; assay type: cell-based; conditions: DMB conjugates of membrane fraction
Source text: (§1) Cell Surface Expression of Fluorinated Sialic Acids. […] These experiments assay the overall action of multiple biosynthetic steps downstream of sialic acid, namely activation, processing and attachment to proteins and lipids and finally successful trafficking to the membrane. As mentioned above, six derivatives of mannosamine have been prepared and tested. In order to bypass the most stringent step in sialic acid biosynthetic pathway (ManNAc 6-kinase), fluorinated sialic acids were also prepared for direct use in feeding experiments. Sialic acids were synthesized as described above by enzymatic conversion of mannosamines to the corresponding sialic acids. Fluorine containing sialic acids were fed to Jurkat, HeLa and HL-60 cells in the peracetylated, methyl ester form since Reutter and Bertozzi have independently shown that exogenous addition of sialic acids in this form results in efficient incorporation of a wide range of derivatives. The degree of fluorination on the N-acyl chain was varied from a single terminal trifluoromethyl group to a —C11F17 group.
(§2) To visualize and quantify the sialic acid incorporation on cell surfaces, 1,2-diamino-4,5-methylenedioxybenzene (DMB) was used as a fluorogenic reagent for labeling α-keto acids (FIG. 4). [Hara, S.; Yamaguchi, M.; Takemori, Y.; Furuhata, K.; Ogura, H.; Nakamura, M. “Determination of Mono-O-Acetylated N-Acetylneuraminic Acids in Human and Rat Sera by Fluorometric High-Performance Liquid-Chromatography” Anal. Biochem. 1989, 179, 162-6.] Briefly, the membrane fraction was obtained after incubation with a given compound (200 μM typical, 900 μM maximum) for 3 days. […] The samples were analyzed by HPLC using a fluorescence detector. The retention times (by comparison to an authentic sample) provide information about the identity, LC ESI-MS unambiguously confirms the molecular structure, and integration of the peaks gives quantitative information on the relative amounts of membrane-derived sialic acids.

[4] = system: HL60-I cells (deficient in UDP-GlcNAc 2-epimerase); assay: Replacement of Neu5Ac with unnatural sialic acids in hyposialylated cells; assay type: cell-based
Description: (§3) To visualize and quantify the sialic acid incorporation on cell surfaces, 1,2-diamino-4,5-methylenedioxybenzene (DMB) was used as a fluorogenic reagent for labeling α-keto acids (FIG. 4). [Hara, S.; Yamaguchi, M.; Takemori, Y.; Furuhata, K.; Ogura, H.; Nakamura, M. “Determination of Mono-O-Acetylated N-Acetylneuraminic Acids in Human and Rat Sera by Fluorometric High-Performance Liquid-Chromatography” Anal. Biochem. 1989, 179, 162-6.] Briefly, the membrane fraction was obtained after incubation with a given compound (200 μM typical, 900 μM maximum) for 3 days. The membrane pellet was then hydrolyzed by use of 2 M AcOH at 80° C. and then allowed them to react with DMB to yield the corresponding quinoxalinone derivatives. The samples were analyzed by HPLC using a fluorescence detector. The retention times (by comparison to an authentic sample) provide information about the identity, LC ESI-MS unambiguously confirms the molecular structure, and integration of the peaks gives quantitative information on the relative amounts of membrane-derived sialic acids.
Replacement of Neu5Ac with Unnatural Sialic Acids in Hyposialylated Cells. Cell lines HL60-I and BJA-B K20, variants respectively of the parent HL60 and human B-cell lymphoma (BJA-B), are deficient in UDP-GlcNAc 2-epimerase and show a global suppression of sialylation of glycoconjugates, including expressing mostly unsialylated Lewis-X. [Keppler, 0. T.; Hinderlich, S.; Langner, J.; Schwartz-Albiez, R.; Reutter, W.; Pawlita, M. “UDP-GlcNAc 2-epimerase: A regulator of cell surface sialylation” Science 1999, 284, 1372-6.] Using these hyposialylated cell lines incorporation of fluorinated precursors was investigated and the overall percentage of sialic acids on cell surfaces that are fluorinated was assessed. Both HL60-I and BJA-B K20 cell lines served as metabolic hosts for fluorinated sialic acids 5-N-trifluoropropyl-Neu (5e) and 5-N-trifluorobutyl-Neu (5g) (FIG. 8). […] In contrast, untreated cells only contained Neu5Ac. […]

[5] = system: BJA-B K20 cells (deficient in UDP-GlcNAc 2-epimerase); assay: as above; assay type: cell-based, human
Description: as §3
Replacement of Neu5Ac with Unnatural Sialic Acids in Hyposialylated Cells. […] Using these hyposialylated cell lines incorporation of fluorinated precursors was investigated and the overall percentage of sialic acids on cell surfaces that are fluorinated was assessed. […]

[6] = system: HL60-II cells; assay: Incorporation of unnatural sialic acids in highly sialylated cells; assay type: cell-based
Description: as §3
(§4) Roughly 75% of the total sialic acid (using substrate 5g) on the cell surface was fluorinated using these cell lines.

[7] = system: K88 (a sub clone of BJA-B); assay: as above; assay type: cell-based, human
Description: as §3, §4

[8] = system: HL60 cells adhering to fibronectin; assay: Static adhesion of labeled cells to fibronectin-coated plates; assay type: cell-based; conditions: HL60 cells incubated 72 h with 200 μM compound; PMA or thapsigargin stimulation; 1 hour adhesion
Description: FIG. 9 depicts (a) adhesion of HL60 cells to plates coated with fibronectin in the presence of thapsigargin (Tg). The cells were incubated with compounds for 72 hours, washed with PBS and then allowed to adhere to plates. After 1 hr, unattached cells were removed by rinsing with PBS and then the number of cells quantified by addition of calcein-AM and fluorescence counting. (b) Similar assay as in (a) but with compounds 4a and 4d (data in (b) is taken from Horstkorte, R.; Rau, K.; Laabs, S.; Danker, K.; Reutter, W. “Biochemical engineering of the N-acyl side chain of sialic acid leads to increased calcium influx from intracellular compartments and promotes differentiation of HL60 cells” FEBS Lett. 2004, 571, 99-102).
Adhesion of Labeled Cells on Collagen and Fibronectin. The ability of cells labeled with fluorinated carbohydrates to adhere to fibronectin and collagen was also investigated. […] To quantify adhesion, 96-well plates were coated with fibronectin or collagen (10 μg/mL in PBS) for 16 hours at 4° C. followed by treatment with 1% BSA for 4 hours to block nonspecific adhesion sites. […] Unattached cells were washed away by rinsing with PBS and the cells were quantified by addition of the fluorogenic esterase substrate calcein-AM and followed by measurement of emission at 520 nm in a microtiter fluorescence plate reader. […]

[9] = system: HeLa cells; assay: Cell surface expression of sialic acids, DMB labeling with fluorescence HPLC; assay type: cell-based
Source text: as §1, §2

Compound | increase of adhesion to fibronectin [1] | incorporation on cell surfaces as sialoglycoconjugates [2] | cell surface incorporation / expression [3] | incorporation on the cell surface by LC ESI-MS [4] | incorporation on the cell surface by LC ESI-MS [5] | incorporation of the fluorinated sialic acid [6] | incorporation of the fluorinated sialic acid [7] | adhesion to fibronectin compared to untreated cells [8] | total sialic acid on the cell surface replaced [9] [%] | cell surface incorporation / expression ([9]; DMB conjugates of membrane fraction) | cell surface sialylation coming from exogenously added compound ([4]; DMB labeling and fluorescence HPLC) [%] | total sialic acid on the cell surface that was fluorinated [6] | total sialic acid on the cell surface that was fluorinated [7] | decrease of adhesion to fibronectin compared to untreated cells [8] [%]
CCC(=O)N[C@@H]1C(O)O[C@H](CO)[C@@H](O)[C@@H]1O (stereo partly shown) [Compound 4d, N-propanoyl-mannosamine] | more than 130% |  |  |  |  |  |  |  |  |  |  |  |  | 
O=C(CC(F)(F)F)N[C@H]1[C@H]([C@H](O)[C@H](O)CO)OC(O)(C(=O)O)C[C@@H]1O (stereo partly shown) [Compound 5e, 5-N-trifluoropropyl-Neu] |  | escorted and appended to cellular surfaces | efficiently incorporated | unambiguously confirmed | unambiguously confirmed | readily incorporated | readily incorporated | decreased |  |  |  |  |  | 
5-N-trifluorobutyl-Neu [Compound 5g] |  | escorted and appended to cellular surfaces |  | unambiguously confirmed | unambiguously confirmed | readily incorporated | readily incorporated |  | 75 | Cell surface expression of 5g | ~75 | Roughly 75% | Roughly 75% | ~70
